This note sets out measurements from patent US10000473B2, “Indazole derivatives useful as glucagon receptor antagonists” (Janssen Pharmaceutica NV, priority 2016, dated 2018).

The structures appear in SMILES notation. Several values for one entry are separate records, joined by “and”; a condition that tells them apart may be missing. Equal entries are not always repeated.

For experiment [1], the system named is GCG-mediated increases in blood glucose. The experiment can be described thus: Glucagon challenge in vivo assay measuring blood glucose (normal dog glucagon challenge test). The following applies: 10 mg/kg oral gavage, fasted male beagle dogs; for inhibition of GCG-mediated increases in blood glucose vs vehicle: glucagon 5 μg/kg intramuscular 90 min after dosing. The method, then:
Glucagon Challenge In Vivo Assay Measuring Blood Glucose
The efficacy of a glucagon receptor antagonist was evaluated using a normal dog glucagon challenge test. Male beagle dogs were overnight fasted prior to the study. Test compound (at 3 mg/kg and 10 mg/kg for Compound #196 and at 10 mg/kg for Compounds #180, #248 and #253) or vehicle (0.5% hydroxypropyl methylcellulose) was dosed via oral gavage. Ninety minutes later, the dogs (1.5 years old, ˜9 Kg) were submitted to a glucagon challenge test by a single intramuscular injection of glucagon (Glucagon, rDNA origin, Eli Lilly, Indianapolis, Ind.) at dose of 5 μg/kg. Blood glucose levels were determined at times −10 min, 0 min (on challenge), 10 min, 20 min, 30 min, and 60 min after glucagon injection.

Experiment [2] concerns the target T1, human GCGR (Homo sapiens, UniProt P47871).
T1 construct: expressed in transfected cells; host or cells: HEK293 (hGluc-1HEK), pcDNA3.1, G418 selection
Description: Cellular functional assay, cAMP readout (glucagon-stimulated cAMP, LANCE TR-FRET). The following applies: HEK293 cells stably expressing full-length human GCGR; glucagon 100 pM; IC50 converted to Ki; read-out: Inhibition of cAMP Ki. The format is cell-based. A general note: In TR-FRET formats the signal depends on donor and acceptor labels being close together.

T1 sequence (P47871 26-477): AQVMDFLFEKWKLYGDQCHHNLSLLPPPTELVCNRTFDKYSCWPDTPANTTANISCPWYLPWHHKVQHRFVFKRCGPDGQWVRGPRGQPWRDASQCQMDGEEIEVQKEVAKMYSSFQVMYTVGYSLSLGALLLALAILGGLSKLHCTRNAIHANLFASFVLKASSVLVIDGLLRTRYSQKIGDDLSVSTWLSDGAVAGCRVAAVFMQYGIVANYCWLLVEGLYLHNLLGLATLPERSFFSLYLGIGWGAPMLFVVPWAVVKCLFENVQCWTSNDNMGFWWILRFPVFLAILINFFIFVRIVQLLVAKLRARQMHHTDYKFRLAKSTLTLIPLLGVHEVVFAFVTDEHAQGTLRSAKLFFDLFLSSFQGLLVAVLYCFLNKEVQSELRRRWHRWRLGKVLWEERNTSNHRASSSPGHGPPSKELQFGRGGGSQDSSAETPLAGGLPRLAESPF

Consider `Cc1cc(C(F)(F)F)ccc1-c1cc2cnn([C@@H](CC(C)C)c3ccc(C(=O)NCCC(=O)O)cc3)c2cc1C` [Compound #253, 3-[[4-[(1S)-3-Methyl-1-[6-methyl-5-[2-methyl-4-(trifluoromethyl)phenyl]indazol-1-yl]butyl]benzoyl]amino]propanoic acid], for which the “inhibition of GCG-mediated increases in blood glucose vs vehicle” value in experiment [1] amounted to 17.1%. The inhibition constant Ki in experiment [2] is 14 nM.
As for `Cc1c(-c2ccc(C(F)(F)F)cc2Cl)ccc2nn([C@@H](CC(C)C)c3ccc(C(=O)NCCC(=O)O)cc3)cc12` [Compound #180, 3-[[4-[(1S)-1-[5-[2-Chloro-4-(trifluoromethyl)phenyl]-4-methyl-indazol-2-yl]-3-methyl-butyl]benzoyl]amino]propanoic acid], in experiment [1] (glucagon 5 μg/kg intramuscular), the “blood glucose levels during glucagon challenge compared with vehicle treated group” value was “markedly reduced blood glucose levels” and the “duration of blood glucose reducing effect after glucagon injection” value is “more than 60 min”. In addition, the “inhibition of GCG-mediated increases in blood glucose vs vehicle” value in experiment [1] turned out to be 28.9%. In addition, the Ki in experiment [2] is 25 nM (2×) and 20 nM.

A word on the Ki: it is the equilibrium dissociation constant of an inhibitor or competing ligand from its target.
